The record followed here is patent US11786534B2 (TAIHO PHARMACEUTICAL CO., LTD., priority 2019, dated 2023).

SMILES strings stand for the structures.

Common to all, as to format: biochemical
In assay [1] the target is T1, human EGFR (L858R/T790M/C797S) (Homo sapiens, UniProt P00533, C797S/L858R/T790M).
T1 construct: made in house; host or cells: Sf9 insect cells, baculovirus
Description: Inhibitory activity against EGFR (L858R/T790M/C797S) kinase. As to the method: 2) Measurement of inhibitory activity against EGFR (L858R/T790M/C797S) kinase
The compounds of the presein invention were measured for their inhibitory activity against EGFR (L858R/T790M/C797S) kinase activity.
The materials, measurement procedures and data analysis method used in this test are substantially the same as those shown in the section “Measurement of inhibitory activity against EGFR (d746-750/T790M/C797S) kinase.” However, among the materials, the kinase protein (SEQ ID NO: 2) used was prepared as follows: the cytoplasmic domain of human EGFR (L858R/T790M/C797S) fused at the amino terminal end with a GST tag was expressed in insect cells (Sf9) by the baculovirus expression system and then purified on a glutathione sepharose column. In the measurement procedures, the final concentration of ATP was set to 0.5 μM. Finally, data analysis was conducted to determine the IC50 value (nM) of each compound against EGFR (L858R/T790M/C797S).
In accordance with the same procedures as shown in 2) in Test Example 1, the compounds of the present invention were measured for their inhibitory activity against EGFR (L858R/T790M/C797S) kinase activity.

The target in a further assay is T2, human EGFR (WT) (Homo sapiens, UniProt P00533).
T2 construct: purchased Carna Biosciences Inc., Japan
T2 sequence (P00533 25-1210): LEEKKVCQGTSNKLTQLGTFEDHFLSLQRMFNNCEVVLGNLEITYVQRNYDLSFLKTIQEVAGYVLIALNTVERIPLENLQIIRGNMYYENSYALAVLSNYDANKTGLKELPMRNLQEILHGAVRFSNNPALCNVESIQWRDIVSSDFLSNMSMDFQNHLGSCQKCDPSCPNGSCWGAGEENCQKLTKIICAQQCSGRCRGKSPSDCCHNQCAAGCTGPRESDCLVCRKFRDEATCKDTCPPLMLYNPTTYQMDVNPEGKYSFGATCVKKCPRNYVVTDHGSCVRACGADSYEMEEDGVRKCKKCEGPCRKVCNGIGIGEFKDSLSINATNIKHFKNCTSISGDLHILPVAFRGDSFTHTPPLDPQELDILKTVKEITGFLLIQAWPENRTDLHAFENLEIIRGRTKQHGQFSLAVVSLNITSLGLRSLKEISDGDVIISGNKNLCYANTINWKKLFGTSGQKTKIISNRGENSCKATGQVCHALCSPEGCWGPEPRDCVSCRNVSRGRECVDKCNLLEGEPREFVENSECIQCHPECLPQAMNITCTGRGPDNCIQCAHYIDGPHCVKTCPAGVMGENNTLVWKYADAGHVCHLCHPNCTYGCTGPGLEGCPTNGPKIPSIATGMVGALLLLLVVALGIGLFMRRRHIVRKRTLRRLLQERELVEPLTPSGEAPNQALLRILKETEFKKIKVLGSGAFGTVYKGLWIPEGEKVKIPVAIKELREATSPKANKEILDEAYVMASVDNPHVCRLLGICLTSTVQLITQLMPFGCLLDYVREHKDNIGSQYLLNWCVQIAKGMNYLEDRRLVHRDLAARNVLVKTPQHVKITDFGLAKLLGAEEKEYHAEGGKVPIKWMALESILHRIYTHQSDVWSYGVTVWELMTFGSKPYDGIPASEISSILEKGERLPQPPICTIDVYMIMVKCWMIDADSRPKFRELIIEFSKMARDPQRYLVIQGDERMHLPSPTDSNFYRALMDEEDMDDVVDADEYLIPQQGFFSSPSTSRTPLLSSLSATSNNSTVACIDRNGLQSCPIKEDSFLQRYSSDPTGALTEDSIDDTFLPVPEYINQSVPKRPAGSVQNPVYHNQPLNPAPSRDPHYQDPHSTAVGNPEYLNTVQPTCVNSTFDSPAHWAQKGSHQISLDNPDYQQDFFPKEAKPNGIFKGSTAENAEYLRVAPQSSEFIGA
Description: Inhibitory activity against EGFR (WT) kinase. Summed up: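 Purified recombinant human wild-type EGFR kinase, with ATP at 1.5 μM final. Compound inhibition of kinase activity read out and fitted to give IC50 (nM).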

In a further assay the target is T3, human EGFR (L858R/C797S) (Homo sapiens, UniProt P00533, C797S/L858R).
T3 construct: purchased SignalChem
T3 sequence (P00533 25-1210 C797S/L858R): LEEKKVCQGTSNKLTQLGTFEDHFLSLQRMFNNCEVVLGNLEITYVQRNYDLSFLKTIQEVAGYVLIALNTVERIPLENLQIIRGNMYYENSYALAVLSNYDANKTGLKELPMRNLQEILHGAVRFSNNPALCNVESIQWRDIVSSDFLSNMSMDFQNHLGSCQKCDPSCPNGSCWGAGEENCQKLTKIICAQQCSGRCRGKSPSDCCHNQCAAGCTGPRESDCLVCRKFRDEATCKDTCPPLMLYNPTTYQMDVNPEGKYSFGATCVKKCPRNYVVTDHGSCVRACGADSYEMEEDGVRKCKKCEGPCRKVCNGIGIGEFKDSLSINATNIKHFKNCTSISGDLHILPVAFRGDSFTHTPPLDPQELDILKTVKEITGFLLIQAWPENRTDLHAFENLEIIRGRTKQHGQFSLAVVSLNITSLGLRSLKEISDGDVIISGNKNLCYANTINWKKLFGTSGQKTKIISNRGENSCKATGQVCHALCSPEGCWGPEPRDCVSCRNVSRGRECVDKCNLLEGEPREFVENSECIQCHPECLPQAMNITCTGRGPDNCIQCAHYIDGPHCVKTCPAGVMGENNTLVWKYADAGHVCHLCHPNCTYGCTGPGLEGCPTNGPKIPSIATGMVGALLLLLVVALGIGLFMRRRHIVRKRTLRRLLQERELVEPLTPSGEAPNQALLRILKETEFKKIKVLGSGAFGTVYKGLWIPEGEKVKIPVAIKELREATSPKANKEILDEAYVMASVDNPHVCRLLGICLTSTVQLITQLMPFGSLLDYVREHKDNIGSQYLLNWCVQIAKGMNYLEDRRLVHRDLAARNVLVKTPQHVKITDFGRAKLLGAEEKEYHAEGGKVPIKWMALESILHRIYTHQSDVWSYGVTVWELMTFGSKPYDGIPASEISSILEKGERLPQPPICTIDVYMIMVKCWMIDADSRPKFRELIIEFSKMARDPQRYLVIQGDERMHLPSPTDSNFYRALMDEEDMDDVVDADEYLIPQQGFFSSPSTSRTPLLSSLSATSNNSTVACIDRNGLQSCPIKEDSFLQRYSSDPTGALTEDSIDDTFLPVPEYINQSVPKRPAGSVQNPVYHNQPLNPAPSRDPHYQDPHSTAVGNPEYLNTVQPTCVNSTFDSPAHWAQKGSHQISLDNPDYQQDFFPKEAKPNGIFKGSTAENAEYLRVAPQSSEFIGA
Description: Inhibitory activity against EGFR (L858R/C797S) kinase. Summed up:
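Purified recombinant human EGFR (C797S/L858R) kinase, final ATP 4 μM, 90-minute kinase reaction, otherwise per the EGFR (d746-750/C797S) protocol. IC50 (nM) determined from inhibition data.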

For assay [2], the target named is T4, human EGFR (d746-750/T790M/C797S) (Homo sapiens, UniProt P00533, C797S/DEL746-750/T790M).
T4 construct: made in house; host or cells: Sf9 insect cells, baculovirus
T4 sequence (P00533 with tags, fused parts or gaps DEL746-750/T790M/C797S): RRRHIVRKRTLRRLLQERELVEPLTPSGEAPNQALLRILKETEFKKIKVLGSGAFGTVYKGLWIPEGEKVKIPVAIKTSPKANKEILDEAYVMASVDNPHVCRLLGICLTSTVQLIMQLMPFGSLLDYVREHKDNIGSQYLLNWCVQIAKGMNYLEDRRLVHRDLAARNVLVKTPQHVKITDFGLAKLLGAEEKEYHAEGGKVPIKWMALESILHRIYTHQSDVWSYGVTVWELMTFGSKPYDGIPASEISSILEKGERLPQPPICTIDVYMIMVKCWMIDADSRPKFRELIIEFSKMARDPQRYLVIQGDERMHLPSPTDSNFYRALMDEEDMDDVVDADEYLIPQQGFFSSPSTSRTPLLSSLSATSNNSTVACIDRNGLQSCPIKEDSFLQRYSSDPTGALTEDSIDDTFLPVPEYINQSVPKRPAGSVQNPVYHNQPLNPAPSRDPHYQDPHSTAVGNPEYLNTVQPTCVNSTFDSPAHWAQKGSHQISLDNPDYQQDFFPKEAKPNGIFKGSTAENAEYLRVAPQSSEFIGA
Put plainly: Inhibitory activity against EGFR (d746-750/T790M/C797S) kinase. Summed up:
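GST-fused cytoplasmic domain of human EGFR d746-750/T790M/C797S (Sf9-expressed) was incubated with 250 nM biotinylated peptide, 6 μM ATP, 10 mM MgCl2 and 10 mM MnCl2 (2.5% DMSO) for 120 min at 25 °C. After an EDTA stop, phosphotyrosine was detected by Eu-PT66/SureLight APC-SA TR-FRET (665/620 nm, excitation 337 nm). Background wells received EDTA before enzyme.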

The target in assay [3] is T5, human EGFR (d746-750/C797S) (Homo sapiens, UniProt P00533, C797S/DEL746-750).
T5 construct: purchased SignalChem
T5 sequence (P00533 with tags, fused parts or gaps DEL746-750/C797S): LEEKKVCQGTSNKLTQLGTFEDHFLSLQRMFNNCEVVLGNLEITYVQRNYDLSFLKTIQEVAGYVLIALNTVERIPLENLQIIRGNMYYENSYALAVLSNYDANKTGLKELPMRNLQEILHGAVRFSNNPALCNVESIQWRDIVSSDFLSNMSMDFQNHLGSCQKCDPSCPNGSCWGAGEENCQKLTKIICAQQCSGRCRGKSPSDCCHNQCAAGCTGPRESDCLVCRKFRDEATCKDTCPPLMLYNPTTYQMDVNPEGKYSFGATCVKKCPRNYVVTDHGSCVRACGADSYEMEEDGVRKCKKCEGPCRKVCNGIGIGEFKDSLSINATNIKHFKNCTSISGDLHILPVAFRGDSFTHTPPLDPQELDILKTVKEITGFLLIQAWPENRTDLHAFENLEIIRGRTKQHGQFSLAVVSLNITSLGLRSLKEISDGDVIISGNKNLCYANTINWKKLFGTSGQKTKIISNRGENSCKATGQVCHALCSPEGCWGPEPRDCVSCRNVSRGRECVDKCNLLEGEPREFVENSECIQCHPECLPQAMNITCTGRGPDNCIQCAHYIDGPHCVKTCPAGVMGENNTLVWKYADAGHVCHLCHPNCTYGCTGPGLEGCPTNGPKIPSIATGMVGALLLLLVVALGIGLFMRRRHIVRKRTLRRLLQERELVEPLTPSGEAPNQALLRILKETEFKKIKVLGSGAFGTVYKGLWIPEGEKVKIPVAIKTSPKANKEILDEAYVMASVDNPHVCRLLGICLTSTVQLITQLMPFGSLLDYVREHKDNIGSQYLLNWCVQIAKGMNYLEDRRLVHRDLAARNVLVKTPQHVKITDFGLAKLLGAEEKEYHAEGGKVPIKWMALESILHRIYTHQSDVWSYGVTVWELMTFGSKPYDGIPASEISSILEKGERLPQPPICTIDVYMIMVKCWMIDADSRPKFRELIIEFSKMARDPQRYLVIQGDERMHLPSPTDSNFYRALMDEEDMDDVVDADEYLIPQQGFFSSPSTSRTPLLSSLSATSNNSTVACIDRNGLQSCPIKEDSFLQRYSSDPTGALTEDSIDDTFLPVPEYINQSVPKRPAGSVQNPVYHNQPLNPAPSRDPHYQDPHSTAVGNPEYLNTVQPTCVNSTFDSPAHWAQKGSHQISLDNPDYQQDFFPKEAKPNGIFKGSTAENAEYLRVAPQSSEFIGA
Description: Inhibitory activity against EGFR (d746-750/C797S) kinase. The procedure, abridged: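 Recombinant human EGFR d746-750/C797S in 13.5 mM Tris pH 7.5 with 2 mM DTT and 0.009% Tween-20. Reaction ran 60 min with 14 μM ATP, 20 mM MgCl2 and 12.5 mM MnCl2, stopped by 40 mM EDTA. IC50 in nM.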

[4] abbreviates: Test Example 1, Table 3, ATP 0.5 μM.
Where [5] appears, read: Test Example 1, Table 6, ATP 1.5 μM.
[6] abbreviates: Test Example 1, Table 5, ATP 4 μM, 90 minutes.
The mark [7] stands for this setting: Test Example 1, Table 2, ATP 6 μM, 25° C., 120 minutes.
Setting [8] is: Test Example 1, Table 4, ATP 14 μM, 60 minutes.
Where [9] appears, read: Test Example 3, Table 9; same procedures as 2) in Test Example 1.
Where [10] appears, read: Test Example 3, Table 12; same procedures as 5) in Test Example 1.
Setting [11] is: Test Example 3, Table 11; same procedures as 4) in Test Example 1.
Where [12] appears, read: Test Example 3, Table 8; same procedures as 1) in Test Example 1.
[13] abbreviates: Test Example 3, Table 10; same procedures as 3) in Test Example 1.

T1 sequence (P00533 with tags, fused parts or gaps T790M/C797S/L858R): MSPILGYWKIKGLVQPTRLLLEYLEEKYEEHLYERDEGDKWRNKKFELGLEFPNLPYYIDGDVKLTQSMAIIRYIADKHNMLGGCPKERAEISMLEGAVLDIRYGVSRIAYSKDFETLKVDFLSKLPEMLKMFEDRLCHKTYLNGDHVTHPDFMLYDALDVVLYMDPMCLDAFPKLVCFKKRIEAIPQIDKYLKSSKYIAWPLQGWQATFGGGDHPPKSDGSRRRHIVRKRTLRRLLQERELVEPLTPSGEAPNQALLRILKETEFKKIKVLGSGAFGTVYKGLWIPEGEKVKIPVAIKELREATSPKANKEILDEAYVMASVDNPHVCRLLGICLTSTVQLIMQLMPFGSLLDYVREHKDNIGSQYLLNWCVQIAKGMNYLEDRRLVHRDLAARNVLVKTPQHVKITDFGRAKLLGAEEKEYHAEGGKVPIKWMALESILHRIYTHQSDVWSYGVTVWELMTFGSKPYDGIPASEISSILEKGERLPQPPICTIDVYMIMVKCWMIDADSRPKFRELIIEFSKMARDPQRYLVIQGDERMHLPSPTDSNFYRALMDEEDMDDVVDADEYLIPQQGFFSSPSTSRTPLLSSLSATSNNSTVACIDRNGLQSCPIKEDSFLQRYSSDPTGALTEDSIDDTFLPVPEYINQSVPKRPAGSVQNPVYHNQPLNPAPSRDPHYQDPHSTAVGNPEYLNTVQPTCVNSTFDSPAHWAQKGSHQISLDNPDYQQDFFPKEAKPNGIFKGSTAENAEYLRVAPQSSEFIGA

For the compound `C#Cc1c(-c2cnc3ccccc3c2)c2c(N)ncnc2n1C12CCC(NC(=O)c3cncc(OCF)n3)(CC1)C2` [Example 38, N-(4-(4-Amino-6-ethynyl-5-(quinolin-3-yl)-7H-pyrrolo[2,3-d]pyrimidin-7-yl)-bicyclo-[2.2.1]heptan-1-yl)-6-(fluoromethoxy)pyrazine-2-carboxamide], the IC50 – broadly, the concentration at which inhibition is half-maximal – was 0.66 nM in assay [1] (setting [4]); 1.6 nM on human EGFR (WT) (setting [5]); 0.97 nM against human EGFR (L858R/C797S) (setting [6]); below 0.3 nM in assay [2] (setting [7]); 0.56 nM in assay [3] (setting [8]).
In the case of `C#Cc1c(-c2cnc3ccccc3c2)c2c(N)ncnc2n1C12CCC(NC(=O)c3nccn4ccnc34)(CC1)C2` [Example 42], the IC50 is below 0.3 nM in assay [1] (setting [4]); 0.31 nM against human EGFR (WT) (setting [5]); 0.43 nM against human EGFR (L858R/C797S) (setting [6]); below 0.3 nM in assay [2] (setting [7]); 0.48 nM in assay [3] (setting [8]).
Consider `C#Cc1c(-c2cnc3ccccc3c2)c2c(N)ncnc2n1C12CCC(NC(=O)NCC)(CC1)C2` [Example 50], for which the IC50 in assay [1] (setting [4]) is 0.68 nM; against human EGFR (WT) (setting [5]), 1.2 nM; on human EGFR (L858R/C797S) (setting [6]) it was 2 nM; in assay [2] (setting [7]), below 0.3 nM; in assay [3] (setting [8]), 0.97 nM.
The like results for `C#Cc1c(-c2cnc3ccccc3c2)c2c(N)ncnc2n1C12CCC(NC(=O)c3ncccn3)(CC1)C2` [Example 51] were, in that order, 0.34 nM, 0.94 nM, 0.99 nM, below 0.3 nM and 0.83 nM.
In the case of `C#Cc1c(-c2cnc3ccccc3c2)c2c(N)ncnc2n1C12CCC(NC(=S)NCC)(CC1)C2` [Example 52], the IC50 in assay [1] (setting [4]) is 0.6 nM; on human EGFR (WT) (setting [5]) it was 0.88 nM; against human EGFR (L858R/C797S) (setting [6]), 2.6 nM; in assay [2] (setting [7]), below 0.3 nM; in assay [3] (setting [8]) it was 1.5 nM.
The like results for `C#Cc1c(-c2cnc3ccccc3c2)c2c(N)ncnc2n1C12CCC(N(C)C(=O)c3ncco3)(CC1)C2` [Example 58, N-[4-(4-Amino-6-ethynyl-5-quinolin-3-ylpyrrolo[2,3-d]pyrimidin-7-yl)-1-bicyclo-[2.2.1]heptan-1-yl]-N-methyloxazole-2-carboxamide] were, in that order, 1.5 nM, 3.9 nM, 3.4 nM, below 0.3 nM and 2.2 nM.
For the compound `C#Cc1c(-c2cnc3ccccc3c2)c2c(N)ncnc2n1C12CCC(NC(=O)OCc3cnccn3)(CC1)C2` [Example 59, Pyrazin-2-ylmethyl (4-(4-amino-6-ethynyl-5-(quinolin-3-yl)-7H-pyrrolo[2,3-d]-pyrimidin-7-yl)bicyclo[2.2.1]heptane-1-yl)carbamate], the 50% inhibitory concentration (IC50) stood at 0.47 nM in assay [1] (setting [9]); 2.2 nM on human EGFR (WT) (setting [10]); 1.7 nM against human EGFR (L858R/C797S) (setting [11]); 0.37 nM in assay [2] (setting [12]); 0.83 nM in assay [3] (setting [13]).
The like results for `C#Cc1c(-c2cnc3ccccc3c2)c2c(N)ncnc2n1C12CCC(NC(=O)c3cccc[n+]3[O-])(CC1)C2` [Example 60, 2-((4-(4-Amino-6-ethynyl-5-(quinolin-3-yl)-7H-pyrrolo[2,3-d]pyrimidin-7-yl)bicyclo-[2.2.1]heptane-1-yl)carbamoyl)pyridine 1-oxide] were, in that order, below 0.3 nM, 0.72 nM, 0.48 nM, below 0.3 nM and 0.3 nM.
The like results for `C#Cc1c(-c2cnc3ccccc3c2)c2c(N)ncnc2n1C12CCC(NC(=O)N3CCOCC3)(CC1)C2` [Example 61, N-(4-(4-Amino-6-ethynyl-5-(quinolin-3-yl)-7H-pyrrolo[2,3-d]pyrimidin-7-yl)bicyclo-[2.2.1]heptan-1-yl)morpholine-4-carboxamide] were, in that order, 1.6 nM, 2.7 nM, 1.1 nM, below 0.3 nM and 0.54 nM.
The like results for `C#Cc1c(-c2cnc3ccccc3c2)c2c(N)ncnc2n1C12CCC(NC(=O)c3cnc4ccccn34)(CC1)C2` [Example 64, N-(4-(4-Amino-6-ethynyl-5-(quinolin-3-yl)-7H-pyrrolo[2,3-d]pyrimidin-7-yl)bicyclo-[2.2.1]heptan-1-yl)imidazo[1,2-a]pyridine-3-carboxamide] were, in that order, below 0.3 nM, 0.41 nM, 0.32 nM, below 0.3 nM and 0.86 nM.
`C#Cc1c(-c2cnc3ccccc3c2)c2c(N)ncnc2n1C12CCC(NC(=O)c3cnc4cnccn34)(CC1)C2` [Example 65]: the IC50 was below 0.3 nM in assay [1] (setting [9]); below 0.3 nM at human EGFR (WT) (setting [10]); below 0.3 nM at human EGFR (L858R/C797S) (setting [11]); below 0.3 nM in assay [2] (setting [12]); 0.4 nM in assay [3] (setting [13]).
With `C#Cc1c(-c2cnc3ccccc3c2)c2c(N)ncnc2n1C12CCC(NC(=O)c3cnc(CO)cn3)(CC1)C2` [Example 66, N-(4-(4-Amino-6-ethynyl-5-(quinolin-3-yl)-7H-pyrrolo[2,3-d]pyrimidin-7-yl)bicyclo-[2.2.1]heptan-1-yl)-5-(hydroxymethyl)pyrazine-2-carboxamide], the IC50 (in assay [1] (setting [9]); on human EGFR (WT) (setting [10]); at human EGFR (L858R/C797S) (setting [11]); in assay [2] (setting [12]); in assay [3] (setting [13])) was below 0.3 nM in each case.
As to `C#Cc1c(-c2cnc3ccccc3c2)c2c(N)ncnc2n1C12CCC(NC(=O)c3cnc(CNC)cn3)(CC1)C2` [Example 67, N-(4-(4-Amino-6-ethynyl-5-(quinolin-3-yl)-7H-pyrrolo[2,3-d]pyrimidin-7-yl)bicyclo-[2.2.1]heptan-1-yl)-5-((methylamino)methyl)pyrazine-2-carboxamide], the IC50 in assay [1] (setting [9]) is below 0.3 nM; against human EGFR (WT) (setting [10]), 0.35 nM; against human EGFR (L858R/C797S) (setting [11]), 0.37 nM; in assay [2] (setting [12]), below 0.3 nM; in assay [3] (setting [13]) it was 0.3 nM.
Turning to `C#Cc1c(-c2cnc3ccccc3c2)c2c(N)ncnc2n1C12CCC(NC(=O)c3cnc(CN(C)C)cn3)(CC1)C2` [Example 68, N-(4-(4-Amino-6-ethynyl-5-(quinolin-3-yl)-7H-pyrrolo[2,3-d]pyrimidin-7-yl)bicyclo-[2.2.1]heptan-1-yl)-5-((dimethylamino)methyl)pyrazine-2-carboxamide], the IC50 in assay [1] (setting [9]) was below 0.3 nM; at human EGFR (WT) (setting [10]) it was 0.43 nM; against human EGFR (L858R/C797S) (setting [11]), 0.36 nM; in assay [2] (setting [12]), below 0.3 nM; in assay [3] (setting [13]), below 0.3 nM.
For the compound `C#Cc1c(-c2cnc3ccccc3c2)c2c(N)ncnc2n1C12CCC(NC(=O)c3cnc(CN4CCOCC4)cn3)(CC1)C2` [Example 69, N-(4-(4-Amino-6-ethynyl-5-(quinolin-3-yl)-7H-pyrrolo[2,3-d]pyrimidin-7-yl)bicyclo-[2.2.1]heptan-1-yl)-5-(morpholinomethyl)pyrazine-2-carboxamide], the half-maximal inhibitory concentration (IC50) in assay [1] (setting [9]) is below 0.3 nM; on human EGFR (WT) (setting [10]) it was 0.74 nM; against human EGFR (L858R/C797S) (setting [11]) it was 0.59 nM; in assay [2] (setting [12]), below 0.3 nM; in assay [3] (setting [13]) it was below 0.3 nM.
Consider `C#Cc1c(-c2cnc3ccccc3c2)c2c(N)ncnc2n1C12CCC(NC(=O)c3ccc(P(C)(C)=O)cn3)(CC1)C2` [Example 70, N-(4-(4-Amino-6-ethynyl-5-(quinolin-3-yl)-7H-pyrrolo[2,3-d]pyrimidin-7-yl)bicyclo-[2.2.1]heptan-1-yl)-5-(dimethylphosphoryl)picolinamide], for which the IC50 in assay [1] (setting [9]) is below 0.3 nM; at human EGFR (WT) (setting [10]), 0.94 nM; against human EGFR (L858R/C797S) (setting [11]), 1.6 nM; in assay [2] (setting [12]), below 0.3 nM; in assay [3] (setting [13]), 0.7 nM.
